# Measurements from patent US20070093416A1, “Human beta-defensin secretion promoter” (priority 2003, published 2007).
# System: β-defensin-2
# Assay: β-Defensin Secretion Promotion Confirmatory Test-3 (Concentration Dependency)
# Assay type: in vivo, human
# Conditions: 3 healthy adults
# Procedure: To evaluate β-defensin secretion promotion effects and concentration dependency of an organic acid, the following tests were conducted using 3 healthy adults as subjects. Saliva secreted for 3 minutes from rested subjects was collected by a spitting method (hereunder, this is referred to as the control). Thereafter, 1 ml of 0.01 wt % malic acid (amount of malic acid ingested: 0.1 mg) was placed in the oral cavity, held for one minute, and then collected together with the secreted saliva. The concentration of β-defensin-2 in the saliva was measured by ELISA, and the amount of β-defensin-2 secreted over one minute using 0.1 mg of malic acid was calculated based on the formula below. Note that the saliva amount (ml) in the formula below was calculated based on the weight of the collected saliva (g) assuming 1 g of saliva=1 ml of saliva. The same test was conducted, respectively, using 0.05, 0.1, 0.2, 0.5, or 1 wt % malic acid aqueous solution (amounts of ingested: 0.5, 1, 2, 5, and 10 mg). [table]
compound,measurement,setting,value
O=C(O)CC(O)C(=O)O (centres unmarked) [malic acid],amount of β-defensin-2 secreted in saliva,"1 ml of 0.01-1 wt % malic acid aqueous solution (0.1-10 mg) held in oral cavity for one minute, FIG. 3",increases depending on the concentration
same,human β-defensin-2 secretion induction effect,"concentration of 0.01% (amount ingested: 0.1 mg), 1 ml held in oral cavity for one minute",has a human β-defensin-2 secretion induction effect
